From patent US10597388B2, “Pyridazinone herbicides” (FMC CORPORATION, priority 2014, dated 2020) come the findings set out here.

Type in all cases: in vivo
Experiment [1] has as its system AMBEL, common ragweed (Ambrosia elatior). Kind of experiment: Test F mixtures with commercial herbicides, Post- or Pre-emergence. The note with it: scale 0-100. The procedure, abridged:
(§1)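 Sandy loam sown plants treated pre- or post-emergence with mixtures with commercial herbicides, rates in g a.i./ha; greenhouse, ~16 h photoperiod, 24-30/19-21° C. Visual rating after 20 d on 0-100 scale; expected effects from Colby's equation.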

For experiment [2], the system named is ECHCG, barnyardgrass (Echinochloa crus-galli). The description is as above. The following applies: scale 0-100. The procedure, abridged: as §1
The test system of experiment [3] is GALAP, galium (Galium aparine). The description is as above. The note with it: Table F3, Post-emergence, scale 0-100. The essentials: as §1
In experiment [4] the test system is KCHSC, kochia (Kochia scoparia). The experiment is described as above. The following applies: scale 0-100. The essentials:
as §1

The test system of experiment [5] is LOLMU, Italian Ryegrass (Lolium multiflorum). Described as above. The following applies: scale 0-100. The procedure, abridged:
as §1

The test system of experiment [6] is SETVI, giant foxtail (Setaria faberii). The description is as above. The note with it: scale 0-100. The essentials: as §1
Experiment [7] has as its system Canada thistle (Cirsium arvense). Put plainly: Test D controlled growth environment herbicide test, pre- and postemergence. The essentials:
(§2)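 Pre-emergence: seeds sown in silt loam soil were sprayed with compound in a non-phytotoxic solvent mix containing surfactant. Post-emergence: plants at 2 to 18 cm (1- to 4-leaf stage) in peat moss/vermiculite medium got the same formulation. Visual 0–100 rating versus controls after 14 to 21 d.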

Experiment [8] has as its system geranium, cutleaf (cutleaf geranium, Geranium dissectum). The experiment is described as above. The essentials:
as §2

Where [9] appears, read: Pre-emergence, Rate 16 g a.i./ha.
The mark [10] stands for this setting: Pre-emergence, Rate 62 g a.i./ha.
[11] abbreviates: Table F3, Post-emergence, Rate 16 g a.i./ha.
Where [12] appears, read: Table F3, Post-emergence, Rate 62 g a.i./ha.
[13] abbreviates: Postemergence, 31 g ai/ha, scale 0 to 100 (0 no effect, 100 complete control).
[14] abbreviates: Postemergence, 125 g ai/ha, visual rating on scale 0 (no effect) to 100 (complete control), 14 to 21 d.
The mark [15] stands for this setting: Postemergence, 250 g ai/ha, scale 0 to 100 (0 no effect, 100 complete control).
[16] abbreviates: Preemergence, 125 g ai/ha, scale 0 to 100 (0 no effect, 100 complete control).
[17] abbreviates: Preemergence, 250 g ai/ha, scale 0 to 100, 0 no effect, 100 complete control.
Where [18] appears, read: postemergence, 62 g ai/ha, scale 0 to 100, 0 no effect, 100 complete control.

Turning to `Cc1cc(C)c2sc(C)c(-c3c(O)c(C)nn(C)c3=O)c2c1` [Compound 2, 5-hydroxy-2,6-dimethyl-4-(2,5,7-trimethylbenzo[b]thien-3-yl)-3(2H)-pyridazinone], the “AMBEL Obsd.” value in experiment [1] (setting [9]) was determined as 30; in experiment [1] (setting [10]), 95; in experiment [1] (setting [11]), 40; in experiment [1] (setting [12]), 80. The “ECHCG Obsd.” value is reported as 0 in experiment [2] (setting [9]), 25 in experiment [2] (setting [10]), 5 in experiment [2] (setting [11]) and 20 in experiment [2] (setting [12]). The “GALAP Obsd.” value in experiment [3] (Rate 16 g a.i./ha) and in experiment [3] (Rate 62 g a.i./ha) was 100 each time. Further, the “KCHSC Obsd.” value in experiment [4] (setting [9]) came to 0; in experiment [4] (setting [10]), 0; in experiment [4] (setting [11]), 50; in experiment [4] (setting [12]) it was 75. The “LOLMU Obsd.” value came out at 0 in experiment [5] (setting [9]), 50 in experiment [5] (setting [10]), 75 in experiment [5] (setting [11]) and 95 in experiment [5] (setting [12]). Moreover, the “SETVI Obsd.” value in experiment [6] (setting [9]) was found to be 60; in experiment [6] (setting [10]) it was 98; in experiment [6] (setting [11]), 15; in experiment [6] (setting [12]), 80.

Consider `Cc1nn(C)c(=O)c(-c2cccc3ccc(Br)cc23)c1O` [Compound 126], for which, in experiment [7] (setting [13]), the “Canada Thistle plant response rating” value was determined as 98. The “Plant response rating, Canada Thistle” value in experiment [7] (setting [14]) stood at 98; in experiment [7] (setting [15]) it was 100; in experiment [7] (Preemergence, 62 g ai/ha, scale 0 to 100 (0 no effect, 100 complete control)), 15; in experiment [7] (setting [16]), 95; in experiment [7] (setting [17]), 95; in experiment [7] (setting [18]) it was 100. Also, the “Plant response rating (scale of 0 to 100), Canada Thistle” value in experiment [7] (Preemergence, 31 g ai/ha) came to 0. For the same compound, the “Geranium, Cutleaf plant response rating” value in experiment [8] (setting [13]) was found to be 30. The “Plant response rating, Geranium, Cutleaf” value turned out to be 80 in experiment [8] (setting [14]); 90 in experiment [8] (setting [15]); 0 in experiment [8] (setting [16]); 15 in experiment [8] (setting [17]); 40 in experiment [8] (setting [18]). Moreover, the “Plant response rating (scale of 0 to 100), Geranium, Cutleaf” value in experiment [8] (Preemergence, 31 g ai/ha) stood at 0; in experiment [8] (Preemergence, 62 g ai/ha) it was 0.
